According to article PMC6095626, “Screening of the Pathogen Box for inhibitors with dual efficacy against Giardia lamblia and Cryptosporidium parvum” (PLoS Neglected Tropical Diseases, 2018):

Key:
[1] = test system: C. parvum (UGA1 Nluc expressing strain in HCT-8 cells); assay: microbe, parasite or virus in culture; type: cell-based, Cryptosporidium parvum; details: for Crypto (10 uM) Mean % inhibition: initial Pathogen Box screen, single concentration 10 µM, inhibition compared to DMSO wells
Outline: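 HCT-8 monolayers grown 48 h to 90–100% confluence, treated with compound at 10 μM or serial dilutions, then infected with bleach-treated UGA1 Nluc C. parvum oocysts.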

[2] = test system: G. lamblia trophozoites (luciferase expressing, WBC6); assay: microbe, parasite or virus in culture; type: cell-based, Giardia lamblia; details: initial Pathogen Box screen, single concentration 16 µM, inhibition compared to DMSO wells
Outline: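 Luciferase-expressing WBC6 trophozoites plated at 250,000 cells/mL, compounds added 1:1, incubated anaerobically (GasPak bags) at 37 °C for 24 h; viability read by bioluminescence, with duplicate plates counted on a MOXI Z cell counter. Metronidazole control serially diluted 1:2 from 40 μM.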

Compound	Crypto (10 uM) Mean % inhibition [1]	Giardia (16 uM) Mean % inhibition [2]	C. parvum cell growth inhibition in the initial screen ([1]; 10 μM, 48 hours) [%]	EC50 ([1]; Nluc C. parvum in HCT-8 cells, 48 hours, read-out: C. parvum EC50) [nM]
CC(C)(C)OC(=O)N1CCN(c2nccc(-c3ccc(-c4ccc(Cl)cc4)s3)n2)CC1 [MMV688416]	41%	55%	–	–
O=C(Cn1ccnc1[N+](=O)[O-])NCc1ccccc1 [MMV688773]	55%	57%	–	–
O=C(NCCN1CCCC1)c1cc(NCCN2CCOCC2)nc2ccc(Cl)cc12 [MMV634140]	X* (Mean or standard deviation are negative but not significantly different from the control to be a growth promoter)	27%	–	–
O=C(Nc1cnc2ccccc2c1)c1cccc(-n2cnnn2)c1 [MMV084864]	34%	63%	–	–
COc1cccc(-n2nnnc2S(=O)(=O)Cc2ccccc2)c1 [MMV676388]	67%	38%	–	–
Nc1ccc(C(=O)Nc2ccc(-c3nc4ccccc4o3)cc2)cc1 [MMV007920]	63%	60%	–	–
O=C(NC1CC1)c1ccc(N2CCOc3ccc(Cl)cc32)s1 [MMV020537]	55%	4.66%	–	–
Cc1cc(NC(=O)c2ccc(S(=O)(=O)N(Cc3ccccc3)C(C)C)cc2)no1 [MMV007133]	X* (Mean or standard deviation are negative but not significantly different from the control to be a growth promoter)	11%	–	–
COc1ccc2nc(C)cc(OCC(=O)NCc3ccccc3)c2c1 [MMV687189]	23%	16%	–	–
O=C1[C@@H](Oc2ccccc2)[C@@H](c2ccc(Cl)cc2)N1CCn1cnc2c(NCc3ccccc3)ncnc21 [MMV688352]	X* (Mean or standard deviation are negative but not significantly different from the control to be a growth promoter)	41%	–	–
CO/C=C(\C(=O)OC)c1ccccc1Oc1cc(Oc2ccccc2C#N)ncn1 [MMV021057]	51%	3.75%	–	–
CCOc1ccc(-c2nc(NC(=O)CS(=O)(=O)c3ccccc3)sc2C)cc1 [MMV007638]	X* (Mean or standard deviation are negative but not significantly different from the control to be a growth promoter)	8%	–	–
CCc1c(C)nc(-n2nc(C)cc2NC(=O)c2ccccc2SC)[nH]c1=O [MMV676477]	96%	28%	≥ 95	220
Cc1nc(-c2ccccn2)nc(N2CCC(Cc3ccccc3)C2)c1Cl (stereo not shown) [MMV659004]	66%	13%	–	–
CC[C@@H]([C@H](C)O)n1ncn(-c2ccc(N3CCN(c4ccc(OC[C@@H]5CO[C@@](Cn6cncn6)(c6ccc(F)cc6F)C5)cc4)CC3)cc2)c1=O [MMV688774]	90%	X* (Mean or standard deviation are negative but not significantly different from the control to be a growth promoter)	–	–
OCc1ccc(-c2cncc(Nc3cccc(Cl)c3)c2)cc1 [MMV026468]	X* (Mean or standard deviation are negative but not significantly different from the control to be a growth promoter)	39%	–	–
c1ccc(Oc2ccc(-c3cc(C4CCOCC4)[nH]n3)cc2)cc1 [MMV687762]	68%	X* (Mean or standard deviation are negative but not significantly different from the control to be a growth promoter)	–	–
Nc1nc2cc(-c3cncc(Oc4ccc(F)cc4)c3)ccc2[nH]1 [MMV687248]	72%	22%	–	–
CC1COC(Cn2cncn2)(c2ccc(Oc3ccc(Cl)cc3)cc2Cl)O1 (stereo not shown) [MMV688943]	46%	81%	–	–
